Measured values published in patent publication USRE49556E1, “Compounds and compositions as protein kinase inhibitors” (Array BioPharma Inc., priority 2009, dated 2023).

Assays:
[1] = test system: SW620 cells; assay: SW620 cell viability assay (Cell Titer Glo); assay type: cell-based; conditions: 9 serial dilutions between 10 and 0.002 μM, without MEK inhibitor
Description: The present invention also includes combinations of the BRaf inhibitors disclosed in this invention with other agents. In particular, the present invention provides for combinations with MEK1/2 inhibitors. FIG. 1 illustrates that the addition of a MEK small molecule inhibitor can reverse the induced ERK signaling, cell growth and transformation caused by a Raf small molecule inhibitor.
SW620 cells were seeded in 1640 RPMI+10% FBS at a density of 1500 cells per 96-well in black walled, clear bottom tissue culture treated plates. Test compounds were serially diluted in DMSO then added to the cells (final DMSO concentration of 0.1%) and incubated at 37° C. and 5% CO2 for 4 days. To measure cell viability, cell plates were brought to room temperature, culture media was removed, and 200 µl of Cell Titer-Glo reagent (Promega, kit components mixed as per the manufacturer's protocol then diluted 1:2 with growth media) was added to each well. Plates were shaken for 5 minutes, then incubated at room temperature for 5 minutes, and the luminescence was measured (Trilux, Perkin Elmer).

[2] = Liver microsomal clearance assay, human; assay type: in vitro ADME; conditions: extraction ratio, human liver microsomes, 1 μM compound
Description: (§1) Liver Microsomal Clearance Assay
(§2) The in vitro microsomal clearance assay is designed to assess potential risks associated with hepatic metabolic stability of compounds. The test compound (1 μM) was incubated with liver microsomes (0.5 mg/mL) from different species (mouse, rat, monkey, dog and human) and NADPH (1 mM) in 100 mM potassium phosphate buffer at 37° C. At specific reaction time points (0, 5, 10 and 30 minutes), reaction aliquots were removed and reactions were terminated by addition of ice cold acetonitrile containing mass spectrometry internal standard. The samples were centrifuged and the supernatants were analyzed by LC-MS/MS. In vitro metabolic half-life (t1/2, min) and intrinsic clearance (CLint, μL/min/mg) are based on the rate and extent of metabolism of the test compound as determined by the disappearance of the parent compound from the reaction mixture. These values may be scaled to predict hepatic metabolic clearance rate (CLh, mL/min/kg) and extraction ratio (ER, expressed as a ratio of the predicted hepatic metabolic clearance to hepatic blood flow in that species). In general, compounds with high predictedCLint or ER in vitro are considered to be at high risk for exposure-limiting metabolism in vivo.

[3] = test system: A375 cells; assay: A375 Cellular Proliferation Assay (A375 CP); assay type: cell-based; conditions: A375-luc cells, 2 days
Description: A375-luc cells engineered to express luciferase are plated to 384-well white clear bottom plates as 1,500 cells/50 μl/well in DMEM containing 10% FBS. Compounds of the invention dissolved in 100% DMSO at appropriate concentrations are transferred to the cells by a robotic Pin Tool (100 nl). The cells are incubated for 2 days at […], then 25 μl of BrightGlo™ is added to each well and the plates are read by luminescence. The concentration of each compound for 50% inhibition (IC50) was calculated by non-linear regression using XL Fit data analysis software.

[4] = In vivo pharmacokinetics assay in mouse
Description: (§3) Full pharmacokinetics study: Male Balb/c mice (n=3, body weights 22-25 g) or male Wistar rats (n=3, body weights 250-300 g) were administered the test compound intravenously via the lateral tail vein or orally via gavage. […] Six blood samples of 50 μL each were collected serially for 24 h after dosing. The blood samples were centrifuged to separate the plasma. Plasma samples were analyzed and quantified by LC-MS/MS.
as §3, with “Rapid” for “Full”, “intravenously (IV)” for “intravenously”, “orally (PO)” for “orally”, “Blood” for “The blood”, “and plasma separated and pooled across” for “to separate”, “three animals at each time point per dose route.” for “plasma.”
For both full and rapid pharmacokinetics studies, the following parameters were calculated by non-compartmental regression analysis using Winnonlin 5.0 software (Pharsight, Mountain View, Calif., USA): plasma clearance (Cl), plasma maximum concentration (Cmax), plasma area-under-the-concentration-time-curve (AUC0-inf) and percent oral bioavailability (F %).

[5] = Liver microsomal clearance assay, mouse; assay type: in vitro ADME; conditions: extraction ratio, mouse liver microsomes, 1 μM compound
Description: as §1, §2

Compound: COC(=O)N[C@@H](C)CNc1nccc(-c2cn(C(C)C)nc2-c2cc(Cl)cc(NS(C)(=O)=O)c2F)n1 [Compound 9, Methyl N-[(2S)-1-({4-[3-(5-chloro-2-fluoro-3-methanesulfonamidophenyl)-1-(propan-2-yl)-1H-pyrazol-4-yl]pyrimidin-2-yl}amino)propan-2-yl]carbamate]
- cellular proliferation (Cell Titer Glo, FIG. 1) [1]: induction in cellular proliferation

Compound: methyl N-[(2S)-1-[(4-{3-[2-fluoro-3-(propane-1-sulfonamido)phenyl]-1-(propan-2-yl)-1H-pyrazol-4-yl}pyrimidin-2-yl)amino]propan-2-yl]carbamate [Compound 3]
- ER Human [2]: 0.69
- IC50 [3]: 2 nM
- Cmax ([4]; PO 5 mg/kg, n = 1): 70 nM
- PO AUC ([4]; PO 5 mg/kg, n = 1): 0.20 (n = 1) hrs*μM
- F ([4]; PO/IV 5/2 mg/kg, n = 1): 6 (n = 1) %
- Cl ([4]; plasma clearance, IV 2 mg/kg): 51 (n = 1) mL/min/kg
- ER Mouse [5]: 0.85
